Our source for the Ki values is patent publication US12383536B2, “CRF receptor antagonists and methods of use” (Neurocrine Biosciences, Inc., priority 2019, dated 2025).

This experiment addresses T1, CRF1 receptor (Homo sapiens, UniProt P34998).
T1 sequence (P34998 24-415): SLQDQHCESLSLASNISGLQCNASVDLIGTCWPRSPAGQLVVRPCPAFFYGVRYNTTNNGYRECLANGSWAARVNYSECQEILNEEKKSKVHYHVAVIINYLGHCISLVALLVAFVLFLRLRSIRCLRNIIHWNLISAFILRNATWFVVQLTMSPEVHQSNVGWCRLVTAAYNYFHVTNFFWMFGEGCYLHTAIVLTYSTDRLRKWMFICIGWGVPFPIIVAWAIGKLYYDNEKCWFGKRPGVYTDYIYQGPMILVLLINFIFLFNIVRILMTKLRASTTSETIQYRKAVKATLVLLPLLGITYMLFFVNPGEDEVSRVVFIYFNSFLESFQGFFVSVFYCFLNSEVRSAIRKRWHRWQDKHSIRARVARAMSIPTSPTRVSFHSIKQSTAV
Description: CRF1 receptor antagonist activity: kinetically derived affinity (Ki = k-1/k1), procedures of Fleck et al. The format is binding. The settings on record: kinetically derived affinity calculated from association (k1) and dissociation (k-1) rate constants; read-out: kinetic Ki. As for the experimental part:
As reported in Fleck et al. (J. Pharmacology and Experimental Therapeutics, 341(2):518-531, 2012) (hereinafter “Fleck et al.” and incorporated by reference in it's entirely) the activity of a CRF1 receptor antagonists may be expressed as the kinetically derived affinity (Ki) calculated from the association (k1) and dissociation (k−1) rate constants by the following equation: Ki=k−1/k1
Compound 1 was evaluated according to these procedures, and the kinetic Ki was determined to be 1.14.

With `C#CCN(c1nc(-c2cc(C)c(OC)cc2Cl)c(C)s1)C(CC1CC1)c1ccc(CO)c(F)c1` (racemic) [Compound 1, racemic {4-[1-{[4-(2-chloro-4-methoxy-5-methylphenyl)-5-methyl-1,3-thiazol-2-yl](prop-2-yn-1-yl)amino}-2-cyclopropylethyl]-2-fluorophenyl}methanol], the Ki was 1.14 nM.

The Ki is the equilibrium dissociation constant of an inhibitor or competing ligand from its target.
